Consider twelve compounds from paper PMC8707700, “Ru(III) Complexes with Lonidamine-Modified Ligands” (International Journal of Molecular Sciences, 2021).

The subject of one data set is SW480. In words: Antiproliferative activity, MTT assay. The following applies: read-out: IC50, µM SW480. Type of data set: cell-based, human. As for the experimental part: (§1) The antiproliferative activity of new ligands and complexes was determined against human cell lines, including colon adenocarcinoma SW480, breast adenocarcinoma MCF-7, lung adenocarcinoma A549, neuroblastoma SHSY5Y, and non-tumourigenic HaCaT (Table 4). In general, complexes were more cytotoxic compared to ligands, lonidamine, and, in some cases, cisplatin. […] We chose this compound and the synthetically accessible complex 16 for mechanistic studies.
(§2) The antiproliferative activity was studied by MTT assays as published previously. For flow cytometry studies, cells were plated into 6-well plates (Eppendorf, Germany; 4 × 10^5 cells in 2 mL of DMEM) and incubated for 24 h. Solutions of complexes in DMSO were prepared immediately prior to the day of the experiments. Cells were treated with either 20 µM of cisplatin, 50 µM of 16, or 20 µM of 20. Concentrations corresponded to two-fold IC50 values based on MTT assays. Cells were incubated for 24 h, pooled, washed with cold PBS, and resuspended in DMEM. Aliquots of cells were processed as recommended in the Muse Annexin V&Dead Cell Kit or Muse Caspase-3/7 Kit (Luminex). Measurements were carried out on a Muse Cell Analyser, Luminex corp., TX, USA.

The test system of another data set is HaCaT. In words: Antiproliferative activity, MTT assay. The following applies: read-out: IC50 HaCaT. In kind it is cell-based, human. As for the experimental part:
as §1, §2

The subject of the next data set is MCF-7. In words: Antiproliferative activity, MTT assay. The following applies: read-out: IC50, µM MCF-7. Type of data set: cell-based, human. On the procedure: as §1, §2
The next data set deals with A549. In words: Antiproliferative activity, MTT assay. In kind it is cell-based, human. The following applies: read-out: IC50, µM A549. As for the experimental part:
as §1, §2

In another data set the test system is SH-SY5Y. In words: Antiproliferative activity, MTT assay. Type of data set: cell-based, human. Particulars: 72 h exposure, mean ± SD. As for the experimental part: as §1, §2
A short description of data set [1]: Stability of Ru(III) complexes in phosphate buffer by UV-vis spectrophotometry. Type of data set: physicochemical. The following applies: 20 mM phosphate buffer pH 7.4, 100 mM NaCl, 37 °C; mean ± SD, three experiments. On the procedure:
The stability of Ru(III) complexes (15–20) was investigated in a solution resembling physiological conditions (20 mM of phosphate buffer, pH 7.4, and 100 mM of NaCl at 37 °C) by UV-vis spectrophotometry (Table 1). The half-transformation time t1/2 was calculated based on changes in the electronic absorption spectrum (Figure S1) and defined as the value of t at the Alin/2 point. ΔA(t) was plotted against λmax; the initial section was approximated as a linear function.
The stability of Ru(III) complexes was studied by electron absorption spectroscopy in 20 mM of phosphate buffer, pH 7.4, and 100 mM of NaCl. The working solution (2 mL, 200 μM complex) was prepared by diluting 10 μL of the original 40 mM solution in DMSO and 1.99 mL of phosphate buffer. UV-vis spectra were recorded every 60 s in the range of 280–600 nm at 37 °C. The half-transformation time was t1/2. For λmax, ΔA(t) was plotted, where ΔA = A0–Ai, an initial section, was approximated as a linear function. At ΔAline./2 point calculated as t = t1/2.

Data set [2] in a line: Lipophilicity, shake-flask method water/n-octanol. In kind it is physicochemical. The following applies: UV-vis, mean ± SD. On the procedure: The lipophilicity of complexes 15–20 was studied using a standard shake-flask method in a mixture of water/n-octanol. For the quantification of compounds in the water phase, UV-vis spectrophotometry was used. […] Among other complexes, as expected, 20 was the most lipophilic (Table 1).
N-octanol was saturated with water and with water saturated with n-octanol; mixture400 mL of n-octanol (water) and 100 mL of water (n-octanol) was stirred for 24 h; and then fractions were separated. The sample of the complex was dissolved in n-octanol and a series of solutions in octanol (300, 250, 3 × 200, 150, 100, and 50 μM) was prepared. Absorption spectra were recorded and the calibration curve for maximum absorption was plotted. From 200 μM solutions, the mixtures with water were prepared (1:1, 1:2, 2:1 v/v) and shaken for 15 min. The organic phase was separated by centrifugation. The concentration of the complex in n-octanol was determined from the calibration curve and lipophilicity (logP) was calculated as log P = log [(C0–Caq)/Caq].

The test system of the next data set is HCT116 cells. In words: Annexin V/7-AAD flow cytometry (Muse Annexin V & Dead Cell Kit). Type of data set: cell-based. The following applies: HCT116, 24 h, 2xIC50; one representative experiment. On the procedure:
Mechanisms of cell death, that is, Annexin V/7-AAD reactivity and caspase 3/7 activation, were determined for 16 and 20 in HCT116 cells using the Muse® Annexin V & Dead Cell Kit (Luminex corp., Austin, TX, USA) and flow cytometry. Cells were incubated with 16, 20, or cisplatin (reference drug) for 24 h at concentrations corresponding to 2xIC50 values (obtained in MTT assays; Table 4). The percentages of Annexin V-positive cells in response to 16 and 20 were higher than cisplatin (Figure 8). Complex 20 with the C12 linker induced Annexin V positivity slightly more efficiently than 16 with the C3 linker (27.4 ± 2.1% vs. 19.7 ± 0.6%).
as §2

The nature of data set [3]: Cyclic voltammetry (redox potentials). Particulars: Pt and GC electrodes, CH3CN and CH2Cl2, any applied potential. Type of data set: physicochemical. On the procedure: The redox behaviour of ligand 10 and complexes 15–20 was studied on Pt and glassy carbon (GC) electrodes in CH3CN and CH2Cl2.
All electrochemical measurements were carried out under argon at room temperature. Cyclic voltammetry (CV) experiments were performed in KO264 PAR three-electrode microcells in CH3CN solution with 0.05 M of Bu4NBF4 as a supporting electrolyte using a IPC-Win potentiostat. The number of transferred electrons was determined by comparing to the height of the […] wave for the same concentration. A glassy carbon (GC) working electrode (diameter 2 mm), a platinum wire auxiliary electrode, and an aqueous Ag/AgCl/KCl (sat.) reference electrode was used. Solvents were routinely distilled and dried prior to use.

Like-named read-outs stand apart in the source and are kept apart here. A value given as a limit tells only on which side of the number the result lay.

Regarding `O=C(NCCn1ccnc1)c1nn(Cc2ccc(Cl)cc2Cl)c2ccccc12` [Compound 9, N-(2-(1H-Imidazol-1-yl)ethyl)-1-(2,4-dichlorobenzyl)-1H-indazole-3-carboxamide], the melting point is 120 to 121 °C. In addition, the IC50 in the data set with SW480 (Homo sapiens, SW480, 72 h) was found to be 48 ± 10 µM. Besides, the IC50 with HaCaT (Homo sapiens, HaCaT, 72 h) was found to be 23 ± 2 µM. Moreover, the IC50 in the data set with MCF-7 (Homo sapiens, MCF7, 72 h) came to 35 ± 6 µM. The IC50 in the data set on A549 (Homo sapiens, A549, 72 h) amounted to 50 ± 16 µM.

For `O=C(NCCCCCCn1ccnc1)c1nn(Cc2ccc(Cl)cc2Cl)c2ccccc12` [Compound 12, N-(6-(1H-Imidazol-1-yl)hexyl)-1-(2,4-dichlorobenzyl)-1H-indazole-3-carboxamide], the half-inhibitory concentration (IC50) was 16 ± 6 µM in the data set on SW480 (Homo sapiens, SW480, 72 h); 40 ± 4 µM in the data set on HaCaT (Homo sapiens, HaCaT, 72 h); 17 ± 2.5 µM in the data set with MCF-7 (Homo sapiens, MCF7, 72 h); 24 ± 10 µM in the data set on A549 (Homo sapiens, A549, 72 h).

As to `O=C(NCCCCCCCCCCCCn1ccnc1)c1nn(Cc2ccc(Cl)cc2Cl)c2ccccc12` [Compound 14, N-(12-(1H-Imidazol-1-yl)dodecyl)-1-(2,4-dichlorobenzyl)-1H-indazole-3-carboxamide], the melting point fell in the range of 86 to 88 °C. Besides, the IC50 in the data set with SW480 (Homo sapiens, SW480, 72 h) was found to be 8.4 ± 1.6 µM. In addition, the concentration for half-maximal inhibition (IC50) in the data set on MCF-7 (Homo sapiens, MCF7, 72 h) amounted to 20.8 ± 4.7 µM. The IC50 with A549 (Homo sapiens, A549, 72 h) worked out at 15 ± 2.2 µM.

For “Na[trans-Ru(DMSO)(C24H25Cl2N5O)Cl4] [Compound 18]”, the IC50 in the data set on SW480 (MTT, 72 h exposure, mean ± SD) was 19.6 ± 3.9 µM; in the data set on MCF-7 (MTT, 72 h exposure, mean ± SD), 22 ± 0.7 µM; in the data set on SH-SY5Y it was 5.1 ± 2.5 µM; in the data set on A549 (MTT, 72 h exposure, mean ± SD), 12.9 ± 1 µM. Also, the “t1/2 (half-transformation time)” value in data set [1] worked out at 10.8 ± 0.5 min. Besides, the “Log P” value in data set [2] is 0.6 ± 0.1.

In turn, `O=C(NCCCCn1ccnc1)c1nn(Cc2ccc(Cl)cc2Cl)c2ccccc12` [Compound 11, N-(4-(1H-Imidazol-1-yl)butyl)-1-(2,4-dichlorobenzyl)-1H-indazole-3-carboxamide] registered a melting point of 98 to 100 °C. Besides, the concentration for half-maximal inhibition (IC50) in the data set with SW480 (Homo sapiens, SW480, 72 h) is 28 ± 8 µM. In addition, in the data set on HaCaT (Homo sapiens, HaCaT, 72 h), the IC50 is 45 ± 3 µM. In the data set on MCF-7 (Homo sapiens, MCF7, 72 h), the IC50 was determined as 22 ± 6 µM. Moreover, the IC50 in the data set on A549 (Homo sapiens, A549, 72 h) turned out to be 25 ± 7 µM.

Consider “Na[trans-Ru(DMSO)(C20H17Cl2N5O)Cl4] [Compound 15]”, for which the IC50 with SW480 (MTT, 72 h exposure, mean ± SD) is 21.4 ± 1.8 µM; with MCF-7 (MTT, 72 h exposure, mean ± SD), 20.4 ± 0.1 µM; in the data set on SH-SY5Y it was 25.8 ± 4.5 µM; in the data set with A549 (MTT, 72 h exposure, mean ± SD), over 30 µM. The “t1/2 (half-transformation time)” value in data set [1] turned out to be 6 ± 0.333 min.

As for “Na[trans-Ru(DMSO)(C22H21Cl2N5O)Cl4] [Compound 17]”, the IC50 with SW480 (MTT, 72 h exposure, mean ± SD) is 21 ± 1.8 µM; in the data set on MCF-7 (MTT, 72 h exposure, mean ± SD), over 30 µM; with SH-SY5Y it was 27.7 ± 3.3 µM; in the data set on A549 (MTT, 72 h exposure, mean ± SD) it was over 30 µM. For the same compound, in [1], the “t1/2 (half-transformation time)” value came to 6 ± 0.333 min.

With `N.N.[Cl][Pt][Cl]` [cisplatin, reference compound], the IC50 was 21.7 ± 0.5 µM in the data set with SW480 (MTT, 72 h exposure, mean ± SD); 10 ± 5 µM in the data set on HaCaT (MTT, 72 h exposure, non-tumourigenic cells, mean ± SD); over 30 µM with MCF-7 (MTT, 72 h exposure, mean ± SD); 9.5 ± 0.1 µM in the data set on SH-SY5Y; 23 ± 6.5 µM in the data set on A549 (MTT, 72 h exposure, mean ± SD). For the same compound, the “early apoptosis (Annexin V/7-AAD)” value with HCT116 cells is 4%. Besides, in the data set with HCT116 cells, the “late apoptosis (Annexin V/7-AAD)” value came to 8%. Moreover, the “live cells (Annexin V/7-AAD)” value in the data set with HCT116 cells is 88%. Moreover, the “necrosis (Annexin V/7-AAD)” value in the data set on HCT116 cells was 0%.

`O=C(NCCCn1ccnc1)c1nn(Cc2ccc(Cl)cc2Cl)c2ccccc12` [Compound 10, N-(3-(1H-Imidazol-1-yl)propyl)-1-(2,4-dichlorobenzyl)-1H-indazole-3-carboxamide] showed a melting point of 121 to 122 °C. Also, the “redox transitions of the ligand” value in data set [3] was “redox transitions were not observed”. Moreover, the IC50 in the data set on SW480 (Homo sapiens, SW480, 72 h) is over 90 µM. Moreover, in the data set on HaCaT (Homo sapiens, HaCaT, 72 h), the half-maximal inhibitory concentration (IC50) was 39 ± 4 µM. Moreover, in the data set on MCF-7 (Homo sapiens, MCF7, 72 h), the half-inhibitory concentration (IC50) is over 90 µM. The IC50 in the data set on A549 (Homo sapiens, A549, 72 h) was over 90 µM.

Regarding “Na[trans-Ru(DMSO)(C26H29Cl2N5O)Cl4] [Compound 19]”, the IC50 was determined as 9.3 ± 0.1 µM in the data set on SW480 (MTT, 72 h exposure, mean ± SD); 17.1 ± 0.3 µM in the data set on MCF-7 (MTT, 72 h exposure, mean ± SD); 2.64 ± 1.5 µM in the data set with SH-SY5Y; 5.9 ± 2.6 µM with A549 (MTT, 72 h exposure, mean ± SD). In addition, the “t1/2 (half-transformation time)” value in data set [1] is 23.17 ± 1.17 min.

Regarding `O=C(NCCCCCCCCn1ccnc1)c1nn(Cc2ccc(Cl)cc2Cl)c2ccccc12` [Compound 13, N-(8-(1H-Imidazol-1-yl)octyl)-1-(2,4-dichlorobenzyl)-1H-indazole-3-carboxamide], the IC50 in the data set on SW480 (Homo sapiens, SW480, 72 h) was over 90 µM; with HaCaT (Homo sapiens, HaCaT, 72 h) it was 45 ± 2 µM; in the data set with MCF-7 (Homo sapiens, MCF7, 72 h), 10 ± 2 µM; in the data set with A549 (Homo sapiens, A549, 72 h), 15 ± 6 µM.

For the compound `O=C(O)c1nn(Cc2ccc(Cl)cc2Cl)c2ccccc12` [lonidamine, 1-(2,4-dichlorobenzyl)-1H-indazole-3-carboxylic acid], the IC50 is over 90 µM with SW480 (Homo sapiens, SW480, MTT, 72 h exposure, mean ± SD); 3 ± 1 µM in the data set with HaCaT (Homo sapiens, HaCaT, MTT, 72 h exposure, non-tumourigenic cells, mean ± SD); 30 ± 10 µM in the data set on MCF-7 (Homo sapiens, MCF7, MTT, 72 h exposure, mean ± SD); over 30 µM with SH-SY5Y (Homo sapiens, SH-SY5Y); over 90 µM in the data set on A549 (Homo sapiens, A549, MTT, 72 h exposure, mean ± SD).
